The molecules below were run against T1, GPR84 (Homo sapiens, UniProt Q9NQS5) (assay: PRESTO-Tango β-arrestin2 recruitment assay, GPR84 antagonistic activity). Details: antagonist activity in the Presto-TANGO assay; inhibition of the response from the agonist ZQ-16 (100 nM); HTLA cells.
T1 construct: expressed in transfected cells; host or cells: HTLA cells (HEK293 line stably expressing a tTA-dependent luciferase reporter and a β-arrestin2-TEV fusion gene), transiently transfected with PEI
Assay type: cell-based
Procedure: PRESTO-Tango β-arrestin recruitment assay (W.K. Kroeze et al., 2015). HTLA cells (a HEK293 cell line stably expressing a tTA-dependent luciferase reporter and a β-arrestin2-TEV fusion gene) were maintained in Dulbecco's Modified Eagle's Medium (DMEM) supplemented with 10% Fetal Bovine Serum (dFBS), 100 U/mL penicillin and 100 μg/mL streptomycin, 2 μg/mL puromycin and 100 μg/mL hygromycin B in a humidified atmosphere at 37° C. in 5% CO2. For transfection, cells were plated at 9×10^6 to 10×10^6 cells per 15-cm cell-culture dish (day 1). The following day (day 2), cells were transfected by adding 5 μg DNA and 15 μg polyethylenimine (PEI) diluted in 1 mL Opti-MEM (Reduced Serum Medium supplied by ThermoFisher). On day 3, transfected cells were transferred at 25000 cells per well in 40 μl of medium into poly-l-lysine-coated and rinsed 384-well white, clear-bottomed cell-culture plates (Greiner Bio-One). On day 4, dilutions of the ligands to be tested were prepared in 1% dFBS DMEM and 10 μL were added to each well. On day 5, 20 μl per well of Bright-Glo solution (Promega) diluted 10-fold in assay buffer (Hanks' Balanced Salt Solution [HBSS], 20 mM HEPES, 1 mM CaCl2, 1 mM MgCl2, pH adjusted to 7.4 by 5 M NaOH) was added to each well. After incubation for 20 min at room temperature, luminescence was counted in an Enspire luminescence counter at 384 nm. Results in the form of relative luminescence units (RLU) were exported into Excel spreadsheets, and GraphPad Prism was used for analysis of data. To measure constitutive activity, no ligand was added on day 4.
The GPR84 antagonistic activity of the compounds was determined using the PRESTO-Tango β-arrestin2 recruitment assay (Assay I, see assays above), from which the concentration of each compound required for 50% inhibition (IC50) of the response from the agonist ZQ-16 (100 nM) was determined. The antagonistic activity for each compound is given in Table 1 as the pIC50, which is the negative log of the IC50 value when converted to molar.

T1 sequence (Q9NQS5 whole entry, the tested form may be a part): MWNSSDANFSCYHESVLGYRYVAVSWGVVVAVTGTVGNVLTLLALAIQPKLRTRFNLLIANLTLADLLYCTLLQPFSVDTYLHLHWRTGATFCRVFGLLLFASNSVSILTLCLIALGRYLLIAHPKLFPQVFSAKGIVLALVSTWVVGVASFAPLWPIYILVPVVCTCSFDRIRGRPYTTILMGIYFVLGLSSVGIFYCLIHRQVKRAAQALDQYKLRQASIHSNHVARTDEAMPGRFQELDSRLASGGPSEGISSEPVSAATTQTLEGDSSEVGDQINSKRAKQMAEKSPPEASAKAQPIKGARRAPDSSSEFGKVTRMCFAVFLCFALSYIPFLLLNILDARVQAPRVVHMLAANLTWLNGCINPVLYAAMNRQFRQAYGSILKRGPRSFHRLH

| Compound | IC50 [nM] |
| --- | --- |
| CCCc1ccc(CCc2nc(OCC3CCCCO3)cc(O)c2Br)cc1 (stereo not shown) [Example 1, 3-bromo-2-(4-propylphenethyl)-6-((tetrahydro-2H-pyran-2-yl)methoxy)pyridin-4-ol] | 3.02 |
| CCCc1ccc(CCc2nc(OCC3CCCCO3)cc(O)c2C)cc1 (stereo not shown) [Example 2, 3-Methyl-2-(4-propylphenethyl)-6-((tetrahydro-2H-pyran-2-yl)methoxy)pyridin-4-ol] | 1.32 |
| CCCc1ccc(CCc2nc(OCC3CCCCO3)cc(O)c2-c2ccccc2)cc1 (stereo not shown) [Example 3, 3-Phenyl-2-(4-propylphenethyl)-6-((tetrahydro-2H-pyran-2-yl)methoxy)pyridin-4-ol] | 85.1 |
| CCOc1ccc(CCc2nc(OCC3CCCCO3)cc(O)c2C#N)cc1 (stereo not shown) [Example 4, 2-(4-Ethoxyphenethyl)-4-hydroxy-6-((tetrahydro-2H-pyran-2-yl)methoxy)nicotinonitrile] | 145 |
| CCOc1ccc(-c2ccc3c(O)cc(OCC4CCCCO4)nc3c2)cc1 (stereo not shown) [Example 5, 7-(4-Ethoxyphenyl)-2-((tetrahydro-2H-pyran-2-yl)methoxy)quinolin-4-ol] | 724 |
| CCCc1ccc(CCc2nc(OCC3CCCCO3)cc(O)c2CC)cc1 (stereo not shown) [Example 6, 3-Ethyl-2-(4-propylphenethyl)-6-((tetrahydro-2H-pyran-2-yl)methoxy)pyridin-4-ol] | 2.14 |
| CCCc1ccc(CCc2nc(OCC3CCCCO3)cc(O)c2CCC)cc1 (stereo not shown) [Example 7, 3-Propyl-2-(4-propylphenethyl)-6-((tetrahydro-2H-pyran-2-yl)methoxy)pyridin-4-ol] | 6.61 |
| CCCc1ccc(CCc2nc(OCC3CCCCO3)cc(O)c2C(C)C)cc1 (stereo not shown) [Example 8, 3-Isopropyl-2-(4-propylphenethyl)-6-((tetrahydro-2H-pyran-2-yl)methoxy)pyridin-4-ol] | 81.3 |
| CCCc1ccc(CCc2nc(OCC3CCCCO3)cc(O)c2-c2ccccc2C)cc1 (stereo not shown) [Example 9, 2-(4-Propylphenethyl)-6-((tetrahydro-2H-pyran-2-yl)methoxy)-3-(o-tolyl)pyridin-4-ol] | 389 |
| CCCc1ccc(CCc2nc(OCC3CCCCO3)cc(O)c2-c2ccc(C)cc2)cc1 (stereo not shown) [Example 10, 2-(4-Propylphenethyl)-6-((tetrahydro-2H-pyran-2-yl)methoxy)-3-(p-tolyl)pyridin-4-ol] | 66.1 |
| CCCc1ccc(CCc2nc(OCC3CCCCO3)cc(O)c2CCc2ccccc2)cc1 (stereo not shown) [Example 11, 3-Phenethyl-2-(4-propylphenethyl)-6-((tetrahydro-2H-pyran-2-yl)methoxy)pyridin-4-ol] | 178 |
| CCCc1ccc(CCc2nc(OCC3CCCCO3)cc(O)c2/C=C/C(=O)OCC)cc1 (stereo not shown) [Example 12, Ethyl (E)-3-(4-hydroxy-2-(4-propylphenethyl)-6-((tetrahydro-2H-pyran-2-yl)methoxy)pyridin-3-yl)acrylate] | 21.9 |
| CCCc1ccc(CCc2nc(OCC3CCCCO3)cc(O)c2CCC(=O)OCC)cc1 (stereo not shown) [Example 13, Ethyl 3-(4-hydroxy-2-(4-propylphenethyl)-6-((tetrahydro-2H-pyran-2-yl)methoxy)pyridin-3-yl)propanoate] | 13.2 |
| CCCc1ccc(CCc2nc(OCC3CCCCO3)cc(O)c2CCC(=O)O)cc1 (stereo not shown) [Example 14, Sodium 3-(4-hydroxy-2-(4-propylphenethyl)-6-((tetrahydro-2H-pyran-2-yl)methoxy)pyridin-3-yl)propanoate] | 1.12 |
| CCCc1ccc(CCc2nc(OCC3CCCCO3)cc(O)c2CCCO)cc1 (stereo not shown) [Example 15, 3-(3-Hydroxypropyl)-2-(4-propylphenethyl)-6-((tetrahydro-2H-pyran-2-yl)methoxy)pyridin-4-ol] | 1.7 |
| CCCc1ccc(CCc2nc(OCC3CCCCO3)cc(O)c2-c2ccc(CC)cc2)cc1 (stereo not shown) [Example 16, 3-(4-Ethylphenyl)-2-(4-propylphenethyl)-6-((tetrahydro-2H-pyran-2-yl)methoxy)pyridin-4-ol] | 70.8 |
| CCCc1ccc(CCc2nc(OCC3CCCCO3)cc(O)c2-c2ccc(O)cc2)cc1 (stereo not shown) [Example 17, 3-(4-Hydroxyphenyl)-2-(4-propylphenethyl)-6-((tetrahydro-2H-pyran-2-yl)methoxy)pyridin-4-ol] | 93.3 |

| Compound | IC50 [nM] |
| --- | --- |
| CCCc1ccc(CCc2nc(OCC3CCCCO3)cc(O)c2-c2ccc(OCC(=O)OC)cc2)cc1 (stereo not shown) [Example 18, Methyl 2-(4-(4-hydroxy-2-(4-propylphenethyl)-6-((tetrahydro-2H-pyran-2-yl)methoxy)pyridin-3-yl)phenoxy)acetate] | 148 |
| CCCc1ccc(CCc2nc(OCC3CCCCO3)cc(O)c2-c2ccc(OCC(=O)O)cc2)cc1 (stereo not shown) [Example 19, 2-(4-(4-Hydroxy-2-(4-propylphenethyl)-6-((tetrahydro-2H-pyran-2-yl)methoxy)pyridin-3-yl)phenoxy)acetic acid] | 93.3 |
| CCCc1ccc(CCc2nc(OCC3CCCCO3)cc(O)c2-c2ccc(C(=O)OC)cc2)cc1 (stereo not shown) [Example 20, Methyl 4-(4-hydroxy-2-(4-propylphenethyl)-6-((tetrahydro-2H-pyran-2-yl)methoxy)pyridin-3-yl)benzoate] | 145 |
| CCCc1ccc(CCc2nc(OCC3CCCCO3)cc(O)c2-c2ccc(C(=O)O)cc2)cc1 (stereo not shown) [Example 21, 4-(4-Hydroxy-2-(4-propylphenethyl)-6-((tetrahydro-2H-pyran-2-yl)methoxy)pyridin-3-yl)benzoic acid] | 141 |
| CCCc1ccc(CCc2nc(OCC3COCCO3)cc(O)c2C)cc1 (stereo not shown) [Example 22, 6-((1,4-Dioxan-2-yl)methoxy)-3-methyl-2-(4-propylphenethyl)pyridin-4-ol] | 3.02 |
| CCOc1ccc(CCc2nc(OCC3COCCO3)cc(O)c2C)cc1 (stereo not shown) [Example 23, 6-((1,4-Dioxan-2-yl)methoxy)-2-(4-ethoxyphenethyl)-3-methylpyridin-4-ol] | 3.31 |
| CCOc1ccc(CCc2nc(OC[C@@H]3COCCO3)cc(O)c2C)cc1 [Example 24, (S)-6-((1,4-dioxan-2-yl)methoxy)-2-(4-ethoxyphenethyl)-3-methylpyridin-4-ol] | 1.07 |
| CCCc1ccc(CCc2nc(OCC3COCCO3)cc(O)c2CC)cc1 (stereo not shown) [Example 25, 6-((1,4-Dioxan-2-yl)methoxy)-3-ethyl-2-(4-propylphenethyl)pyridin-4-ol] | 0.776 |
| CCOc1ccc(CCc2nc(OCC3COCCO3)cc(O)c2CC)cc1 (stereo not shown) [Example 26, 6-((1,4-Dioxan-2-yl)methoxy)-2-(4-ethoxyphenethyl)-3-ethylpyridin-4-ol] | 0.389 |
| Cc1c(O)cc(OCC2COCCO2)nc1CCc1ccc(OCCNC(=O)OC(C)(C)C)cc1 (stereo not shown) [Example 27, Tert-butyl (2-(4-(2-(6-((1,4-dioxan-2-yl)methoxy)-4-hydroxy-3-methylpyridin-2-yl)ethyl)phenoxy)ethyl)carbamate] | 0.282 |
| CCOC(=O)COc1ccc(CCc2nc(OCC3COCCO3)cc(O)c2C)cc1 (stereo not shown) [Example 28, Ethyl 2-(4-(2-(6-((1,4-dioxan-2-yl)methoxy)-4-hydroxy-3-methylpyridin-2-yl)ethyl)phenoxy)acetate] | 11.2 |
| Cc1c(O)cc(OCC2COCCO2)nc1CCc1ccc(OCCN)cc1 (stereo not shown) [Example 29, 2-(4-(2-(6-((1,4-Dioxan-2-yl)methoxy)-4-hydroxy-3-methylpyridin-2-yl)ethyl)phenoxy)ethan-1-aminium chloride] | 16.2 |
| Cc1c(O)cc(OCC2COCCO2)nc1CCc1ccc(OCC(=O)O)cc1 (stereo not shown) [Example 30, 2-(4-(2-(6-((1,4-Dioxan-2-yl)methoxy)-4-hydroxy-3-methylpyridin-2-yl)ethyl)phenoxy)acetic acid] | 1290 |
| CC(=O)NCCOc1ccc(CCc2nc(OCC3COCCO3)cc(O)c2C)cc1 (stereo not shown) [Example 31, N-(2-(4-(2-(6-((1,4-dioxan-2-yl)methoxy)-4-hydroxy-3-methylpyridin-2-yl)ethyl)phenoxy)ethyl)acetamide] | 17.8 |
| CCc1c(O)cc(OCC2COCCO2)nc1CCc1ccc(OCCNC(=O)OC(C)(C)C)cc1 (stereo not shown) [Example 32, tert-Butyl (2-(4-(2-(6-((1,4-dioxan-2-yl)methoxy)-3-ethyl-4-hydroxypyridin-2-yl)ethyl)phenoxy)ethyl)carbamate] | 0.209 |
| CCc1c(O)cc(OCC2COCCO2)nc1CCc1ccc(OCCCNC(=O)OC(C)(C)C)cc1 (stereo not shown) [Example 33, tert-Butyl (3-(4-(2-(6-((1,4-dioxan-2-yl)methoxy)-3-ethyl-4-hydroxypyridin-2-yl)ethyl)phenoxy)propyl)carbamate] | 0.302 |
| CCc1c(O)cc(OCC2COCCO2)nc1CCc1ccc(OCCOCCNC(=O)OC(C)(C)C)cc1 (stereo not shown) [Example 34, tert-Butyl (2-(2-(4-(2-(6-((1,4-dioxan-2-yl)methoxy)-3-ethyl-4-hydroxypyridin-2-yl)ethyl)phenoxy)ethoxy)ethyl)carbamate] | 0.331 |

From US20250066335A1, “POLYSUBSTITUTED 4-HYDROXYPYRIDINE AND 4-HYDROXYQUINOLINE DERIVATIVES AS GPR84 ANTAGONISTS” (UNIVERSITY OF COPENHAGEN, priority 2021, published 2025)
